Measurements taken from US20140193827A1 (TEVA PHARMACEUTICAL INDUSTRIES, LTD., priority 2013, published 2014).

System: GA-primed murine splenocytes
Test: ANOVA-based pattern identification method
Type: cell-based, mouse
Excerpt: We sought to identify probes matching specific patterns of expression across experimental conditions using a technique that referred to as the ANOVA-based Pattern Identification Method.
To carry out the analysis in a general manner, we computed the 6 p-values required to do pairwise comparisons of all 4 conditions for all probes using the ANOVA1 function in MATLAB. We then identified sets of probes matching the desired pattern. In the example above, probes were identified as being only affected by PG if their 6 pairwise comparison pvalues matched the following pattern (pGA-PG<0.05, pPG-reference standard<0.05, pPG-Medium<0.05, pGAMedium>0.05, pGA-reference standard>0.05, preference standard-Medium>0.05).

[1] = DOWN IN GA AND REF ONLY, first line for this gene
[2] = DOWN IN GA AND REF ONLY, second line for this gene

For glatiramer acetate [GA], the “average expression of LOC382163” value (DOWN IN GA AND REF ONLY) was 6.742, the “average expression of LOC383099” value (DOWN IN GA AND REF ONLY) was 13.14 and the “average expression of LOC386085” value (DOWN IN GA AND REF ONLY) was 6.21. The “average expression of LOC386117” value (DOWN IN GA AND REF ONLY) was 7.052, the “average expression of LOC636818” value (DOWN IN GA AND REF ONLY) was 5.986 and the “average expression of LOC100046003” value (DOWN IN GA AND REF ONLY) was 8.735. The “average expression of LYNX1” value (DOWN IN GA AND REF ONLY) was 8.531, the “average expression of MBD1” value (DOWN IN GA AND REF ONLY) was 9.009 and the “average expression of MBL1” value (DOWN IN GA AND REF ONLY) was 5.552. For the same substance, the “average expression of MKL1” value (DOWN IN GA AND REF ONLY) was 6.303, the “average expression of MREG” value (DOWN IN GA AND REF ONLY) was 8.88 and the “average expression of MYO7A” value (DOWN IN GA AND REF ONLY) was 6.668. For the same substance, the “average expression of NEURL” value (DOWN IN GA AND REF ONLY) was 5.956, the “average expression of NISCH” value (DOWN IN GA AND REF ONLY) was 7.088 and the “average expression of NOS3” value (DOWN IN GA AND REF ONLY) was 5.804. The “average expression of NTE” value (DOWN IN GA AND REF ONLY) was 8.3088, the “average expression of OLFR150” value (DOWN IN GA AND REF ONLY) was 5.626 and the “average expression of OLFR516” value (DOWN IN GA AND REF ONLY) was 5.76. For the same substance, the “average expression of OLFR586” value (DOWN IN GA AND REF ONLY) was 5.541, the “average expression of OPHN1” value (DOWN IN GA AND REF ONLY) was 5.71 and the “average expression of ORF19” value (DOWN IN GA AND REF ONLY) was 6.879. The “average expression of P2RX4” value (DOWN IN GA AND REF ONLY) was 7.358, the “average expression of PAPSS2” value (DOWN IN GA AND REF ONLY) was 6.662 and the “average expression of PARD3B” value (DOWN IN GA AND REF ONLY) was 5.905. The “average expression of PCBP2” value (DOWN IN GA AND REF ONLY) was 12.63, the “average expression of PCDH19” value (DOWN IN GA AND REF ONLY) was 5.63 and the “average expression of PEO1” value (DOWN IN GA AND REF ONLY) was 7.1356. The “average expression of PI4KB” value (DOWN IN GA AND REF ONLY) was 9.544, the “average expression of PIK3R6” value (DOWN IN GA AND REF ONLY) was 6.343 and the “average expression of PLEKHB2” value (DOWN IN GA AND REF ONLY) was 9.006. For the same substance, the “average expression of PREP” value (DOWN IN GA AND REF ONLY) was 7.918, the “average expression of PRKCZ” value (DOWN IN GA AND REF ONLY) was 6.967 and the “average expression of PROM” value (DOWN IN GA AND REF ONLY) was 5.87. For the same substance, the “average expression of RARG” value (DOWN IN GA AND REF ONLY) was 6.121, the “average expression of RASGRF1” value (DOWN IN GA AND REF ONLY) was 5.764 and the “average expression of RBM15” value (DOWN IN GA AND REF ONLY) was 7.902. The “average expression of RCCD1” value (DOWN IN GA AND REF ONLY) was 8.174, the “average expression of REN1” value (DOWN IN GA AND REF ONLY) was 5.599 and the “average expression of RFFL” value (DOWN IN GA AND REF ONLY) was 7.211. The “average expression of RHBDD1” value (DOWN IN GA AND REF ONLY) was 7.627, the “average expression of RING1” value (DOWN IN GA AND REF ONLY) was 8.656 and the “average expression of RNF10” value (DOWN IN GA AND REF ONLY) was 11.45. The “average expression of RNF123” value (DOWN IN GA AND REF ONLY) was 7.4966, the “average expression of S031414D18RIK” value (DOWN IN GA AND REF ONLY) was 8.467 and the “average expression of SCL0004023.1_57” value (DOWN IN GA AND REF ONLY) was 5.99. For the same substance, the “average expression of SEC16A” value (DOWN IN GA AND REF ONLY) was 9.968, the “average expression of SETD1A” value (DOWN IN GA AND REF ONLY) was 8.956 and the “average expression of SFXN3” value (DOWN IN GA AND REF ONLY) was 6.025. For the same substance, the “average expression of SGPL1” value (DOWN IN GA AND REF ONLY) was 7.481, the “average expression of SHC1” value (DOWN IN GA AND REF ONLY) was 11.03 and the “average expression of SHKBP1” value (DOWN IN GA AND REF ONLY) was 8.287. The “average expression of SLC9A4” value (DOWN IN GA AND REF ONLY) was 5.715, the “average expression of SLC25A42” value (DOWN IN GA AND REF ONLY) was 6.212 and the “average expression of SLC35E4” value (DOWN IN GA AND REF ONLY) was 5.806. For the same substance, the “average expression of SLCO6C1” value (DOWN IN GA AND REF ONLY) was 5.618, the “average expression of SMARCE1” value (DOWN IN GA AND REF ONLY) was 9.332 and the “average expression of SNX15” value (DOWN IN GA AND REF ONLY) was 9.294. For the same substance, the “average expression of SNX33” value (DOWN IN GA AND REF ONLY) was 6.987, the “average expression of SOLH” value (DOWN IN GA AND REF ONLY) was 7.952 and the “average expression of SP2” value (DOWN IN GA AND REF ONLY) was 6.867. For the same substance, the “average expression of SRGAP2” value (DOWN IN GA AND REF ONLY) was 7.797, the “average expression of SRGAP3” value (DOWN IN GA AND REF ONLY) was 6.074 and the “average expression of STARD3” value (DOWN IN GA AND REF ONLY) was 8.435. For the same substance, the “average expression of TBC1D2” value (DOWN IN GA AND REF ONLY) was 6.839, the “average expression of TBC1D25” value (DOWN IN GA AND REF ONLY) was 7.965 and the “average expression of TEAD4” value (DOWN IN GA AND REF ONLY) was 5.994. For the same substance, the “average expression of TGFBI” value (DOWN IN GA AND REF ONLY) was 6.19, the “average expression of TGIF1” value (DOWN IN GA AND REF ONLY) was 8.224 and the “average expression of TIMM8A2” value (DOWN IN GA AND REF ONLY) was 5.837. For the same substance, the “average expression of TLR13” value (DOWN IN GA AND REF ONLY) was 6.019, the “average expression of TMEM56” value (DOWN IN GA AND REF ONLY) was 5.549 and the “average expression of TMEM63A” value (DOWN IN GA AND REF ONLY) was 7.667. The “average expression of TMUB1” value (DOWN IN GA AND REF ONLY) was 8.55, the “average expression of TNS4” value (DOWN IN GA AND REF ONLY) was 5.759 and the “average expression of TRP53” value (DOWN IN GA AND REF ONLY) was 9.698. The “average expression of TYROBP” value (DOWN IN GA AND REF ONLY) was 7.408, the “average expression of USP11” value (DOWN IN GA AND REF ONLY) was 6.423 and the “average expression of USP22” value (DOWN IN GA AND REF ONLY) was 9.057. For the same substance, the “average expression of USP54” value (DOWN IN GA AND REF ONLY) was 6.972, the “average expression of WWP2” value (DOWN IN GA AND REF ONLY) was 8.833 and the “average expression of ZC3H12A” value (DOWN IN GA AND REF ONLY) was 8.215. The “average expression of ZFP36L1” value (DOWN IN GA AND REF ONLY) was 13.82, the “average expression of ZFP317” value (DOWN IN GA AND REF ONLY) was 7.218 and the “average expression of ZFP704” value (DOWN IN GA AND REF ONLY) was 5.829. The “average expression of ZFPL1” value (DOWN IN GA AND REF ONLY) was 7.39, the genericLS expression level (DOWN IN GA AND REF ONLY) was 6.212 and the “average expression of CLEC4B1” value [1] was 5.984. For the same substance, the “average expression of LOC100048105” value [1] was 13.17, the “average expression of SLC11A1” value [1] was 6.429 and the “average expression of CLEC4B1” value [2] was 5.725. For the same substance, the “average expression of LOC100048105” value [2] was 13.47, the “average expression of SLC11A1” value [2] was 6.896 and the “average expression of GAS7” value (DOWN IN GA AND REF ONLY, second line for this gene (first at r2479)) was 6.6505. The 29D0003A17RIK expression level (DOWN IN generic ONLY) was 6.032, the 1700081L16RIK expression level (DOWN IN generic ONLY) was 5.561 and the 2210003I03RIK expression level (DOWN IN generic ONLY) was 5.693. It also gave a 3110052M02RIK expression level (DOWN IN generic ONLY) of 5.651, a 3110079O15RIK expression level (DOWN IN generic ONLY) of 5.642 and a 4833419KD8RIK expression level (DOWN IN generic ONLY) of 5.588. For the same substance, the 4921522P10RIK expression level (DOWN IN generic ONLY) was 5.793, the 4930543E05RIK expression level (DOWN IN generic ONLY) was 5.681 and the 4930571C24RIK expression level (DOWN IN generic ONLY) was 5.414. For the same substance, the 5730599A22RIK expression level (DOWN IN generic ONLY) was 5.675, the 6430527G18RIK expression level (DOWN IN generic ONLY) was 5.618 and the 6720487G11RIK expression level (DOWN IN generic ONLY) was 5.949. The A230066D03RIK expression level (DOWN IN generic ONLY) was 5.913, the A530088H08RIK expression level (DOWN IN generic ONLY) was 5.838 and the A830021M18 expression level (DOWN IN generic ONLY) was 5.662. For the same substance, the ADAMTSL3 expression level (DOWN IN generic ONLY) was 5.806, the B230323D24RIK expression level (DOWN IN generic ONLY) was 5.81 and the BRPF1 expression level (DOWN IN generic ONLY) was 8.958. The BTF3L4 expression level (DOWN IN generic ONLY) was 5.682, the C430020E23RIK expression level (DOWN IN generic ONLY) was 5.906 and the CNTN2 expression level (DOWN IN generic ONLY) was 5.729. For the same substance, the CORO1B expression level (DOWN IN generic ONLY) was 11.36, the CRAT expression level (DOWN IN generic ONLY) was 5.921 and the CREBZF expression level (DOWN IN generic ONLY) was 5.66. For the same substance, the D130050A01RIK expression level (DOWN IN generic ONLY) was 5.633, the D130061E05RIK expression level (DOWN IN generic ONLY) was 5.723 and the D130063P19RIK expression level (DOWN IN generic ONLY) was 5.768. The D530031C13RIK expression level (DOWN IN generic ONLY) was 5.728, the DLG1 expression level (DOWN IN generic ONLY) was 5.734 and the EFCAB1 expression level (DOWN IN generic ONLY) was 5.72. The EG634762 expression level (DOWN IN generic ONLY) was 5.772, the ELMO2 expression level (DOWN IN generic ONLY) was 5.907 and the ENSMUSG00000071316 expression level (DOWN IN generic ONLY) was 5.766. For the same substance, the EZH2 expression level (DOWN IN generic ONLY) was 5.625.
